Data published in patent US20240327393A1 (SIRONAX LTD., priority 2021, published 2024).

Test system: HT-1080 (ATCC, CCL-121) cells
Assay: HT-1080 cell viability assay with ferroptosis inducer RSL3 (Cell Titer-Glo)
Assay type: cell-based
Conditions: HT-1080 cells treated with RSL3; 3-fold, 10-point dilution, 1.1 μM highest concentration; Table 3; read-out: EC50 (nM), ferroptosis inhibitory activity
How it was run: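 HT-1080 cells (6000 per well) were cultured overnight at 37 °C, then co-treated with RSL3 and compound in a 3-fold, 10-point series topping at 1.1 μM. Viability was read by CellTiter-Glo luminescence and normalized to untreated controls. EC50 came from a sigmoidal non-linear regression fit.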

| EC50 | SMILES |
| --- | --- |
| 0.1 to 100 nM | Cc1cc(N2CCC(C(F)(F)F)C2)ccc1Nc1ccc2c(c1)OCC(=O)N2 (stereo not drawn) [Compound 502, 7-((2-methyl-4-(3-(trifluoromethyl)pyrrolidin-1-yl)phenyl)amino)-2H-benzo[b][1,4]oxazin-3(4H)-one] |
| 0.1 to 100 nM | Cc1cc(N2CCC(C(F)(F)F)CC2)ccc1Nc1ccc2c(c1)OCC(=O)N2 [Compound 515, 7-((2-methyl-4-(4-(trifluoromethyl)piperidin-1-yl)phenyl)amino)-2H-benzo[b][1,4]oxazin-3(4H)-one] |

Same assay, conditions: Homo sapiens; HT-1080 cells treated with RSL3; 3-fold, 10-point dilution, 1.1 μM highest concentration; Table 3; read-out: EC50 (nM), ferroptosis inhibitory activity

| SMILES | EC50 |
| --- | --- |
| Cc1cc(N2CCC(C(F)(F)F)CC2)ccc1Nc1ccc2[nH]c(=O)oc2c1 [Compound 496, 6-((2-methyl-4-(4-(trifluoromethyl)piperidin-1-yl)phenyl)amino) benzo[d]oxazol-2(3H)-one] | 0.1 to 100 nM |
| Cc1cc(N2CCC(C(F)(F)F)CC2)ccc1Nc1ccc2[nH]ncc2c1 [Compound 497, N-(2-methyl-4-(4-(trifluoromethyl)piperidin-1-yl)phenyl)-1H-indazol-5-amine] | 0.1 to 100 nM |
| Cc1cc(N2CCCCC2)ccc1Nc1ccc2c(c1)OCC(=O)N2C [Compound 506] | 0.1 to 100 nM |
| CC1CCN(c2ccc(Nc3ccc4c(c3)OCC(=O)N4)cc2)CC1 [Compound 507, 7-((4-(4-methylpiperidin-1-yl)phenyl)amino)-2H-benzo[b][1,4]oxazin-3(4H)-one] | 0.1 to 100 nM |
| O=C1COc2cc(Nc3ccc(N4CCC(F)CC4)cc3)ccc2N1 [Compound 508, 7-((4-(4-fluoropiperidin-1-yl)phenyl)amino)-2H-benzo[b][1,4]oxazin-3(4H)-one] | 0.1 to 100 nM |
| O=C1COc2cc(Nc3ccc(N4CCC(O)(C(F)(F)F)CC4)cc3)ccc2N1 [Compound 510, 7-((4-(4-hydroxy-4-(trifluoromethyl)piperidin-1-yl)phenyl)amino)-2H-benzo[b][1,4]oxazin-3(4H)-one] | 0.1 to 100 nM |
| Cc1cc(N2CCC(O)(C(F)(F)F)CC2)ccc1Nc1cc(C)c2c(c1)OCC(=O)N2 [Compound 511, 7-((4-(4-hydroxy-4-(trifluoromethyl)piperidin-1-yl)-2-methylphenyl)amino)-5-methyl-2H-benzo[b][1,4]oxazin-3(4H)-one] | 0.1 to 100 nM |
| Cc1cc(N2CCC(C(F)(F)F)CC2)ccc1Nc1cc2c(cc1C)NC(=O)CO2 [Compound 512, 6-methyl-7-((2-methyl-4-(4-(trifluoromethyl)piperidin-1-yl)phenyl)amino)-2H-benzo[b][1,4]oxazin-3(4H)-one] | 0.1 to 100 nM |
| Cc1cc(N2CCC(C(F)(F)F)CC2)ccc1Nc1ccc2[nH]c(=O)[nH]c2c1 [Compound 513, 5-((2-methyl-4-(4-(trifluoromethyl)piperidin-1-yl)phenyl)amino)-1,3-dihydro-2H-benzo[d]imidazol-2-one] | 0.1 to 100 nM |
| Cc1cc(N2CCC(C(F)(F)F)CC2)ccc1Nc1ccc2c(c1)C(C)(C)C(=O)N2 [Compound 514, 3,3-dimethyl-5-((2-methyl-4-(4-(trifluoromethyl)piperidin-1-yl)phenyl)amino)indolin-2-one] | 0.1 to 100 nM |
| COc1cc(N2CCC(C(F)(F)F)CC2)ccc1Nc1ccc2c(c1)OCC(=O)N2 [Compound 516, 7-((2-methoxy-4-(4-(trifluoromethyl)piperidin-1-yl)phenyl)amino)-2H-benzo[b][1,4]oxazin-3(4H)-one] | 0.1 to 100 nM |
| O=C1COc2cc(Nc3ccc(N4CCCCC4)cc3)ccc2N1 [Compound 517, 7-(4-(piperidin-1-yl)phenylamino)-2H-benzo[b][1,4]oxazin-3(4H)-one] | 0.1 to 100 nM |
| O=C1COc2cc(Nc3ccc(N4CCC(F)(F)CC4)cc3)ccc2N1 [Compound 524, 7-((4-(4,4-difluoropiperidin-1-yl)phenyl)amino)-2H-benzo[b][1,4]oxazin-3(4H)-one] | 0.1 to 100 nM |
| Cc1cc(N2CCC(C(F)(F)F)CC2)ccc1Nc1ccc2[nH]c(N)nc2c1 [Compound 526, N5-(2-methyl-4-(4-(trifluoromethyl)piperidin-1-yl)phenyl)-1H-benzo[d]imidazole-2,5-diamine] | 0.1 to 100 nM |
| Cc1cc(N2CCC(C(F)(F)F)CC2)ccc1Nc1ccc2c(c1)NC(=O)C2(C)C [Compound 527, 3,3-dimethyl-6-((2-methyl-4-(4-(trifluoromethyl)piperidin-1-yl)phenyl)amino)indolin-2-one] | 0.1 to 100 nM |
| Cc1cc(N2CC(C)OC(C)C2)ccc1Nc1ccc2c(c1)CCNC2 (stereo not drawn) [Compound 528, N-(4-(2,6-dimethylmorpholino)-2-methylphenyl)-1,2,3,4-tetrahydroisoquinolin-6-amine] | 0.1 to 100 nM |
| Cc1cc(N2CCOC(C)C2)ccc1Nc1ccc2c(c1)CCNC2 (stereo not drawn) [Compound 529, N-(2-methyl-4-(2-methylmorpholino)phenyl)-1,2,3,4-tetrahydroisoquinolin-6-amine] | 0.1 to 100 nM |
| Cc1cc(N2CCC(C(F)(F)F)CC2)ccc1Nc1ccc2c(c1)OCCNC2=O [Compound 531, 8-((2-methyl-4-(4-(trifluoromethyl)piperidin-1-yl)phenyl)amino)-3,4-dihydrobenzo[f][1,4]oxazepin-5(2H)-one] | 0.1 to 100 nM |
| CN1C(=O)COc2cc(N(C)c3ccc(N4CCC(C(F)(F)F)CC4)cc3)ccc21 [Compound 532, 4-methyl-7-(methyl(4-(4-(trifluoromethyl)piperidin-1-yl)phenyl)amino)-2H-benzo[b][1,4]oxazin-3(4H)-one] | 100 to 1000 nM |
| Cc1cc(N2CCC(C(F)(F)F)CC2)ccc1Nc1ccc2c(c1)OCCC(=O)N2 [Compound 533] | 0.1 to 100 nM |
| O=C1CCOc2cc(Nc3ccc(N4CCC(C(F)(F)F)CC4)cc3)ccc2N1 [Compound 534, 8-((4-(4-(trifluoromethyl)piperidin-1-yl)phenyl)amino)-2,3-dihydrobenzo[b][1,4]oxazepin-4(5H)-one] | 0.1 to 100 nM |
| Cc1cc(N2CCC(C(F)(F)F)CC2)ccc1Nc1ccc2c(c1)CNC(=O)N2 [Compound 535, 6-((2-methyl-4-(4-(trifluoromethyl)piperidin-1-yl)phenyl)amino)-3,4-dihydroquinazolin-2(1H)-one] | 0.1 to 100 nM |
| Cc1cc(N2CC(C)OC(C)C2)ccc1Nc1ccc2c(c1)nc(N)n2C (stereo not drawn) [Compound 536, 5-N-[4-(2,6-dimethylmorpholin-4-yl)-2-methylphenyl]-1-methyl-1,3-benzodiazole-2,5-diamine] | 0.1 to 100 nM |

Second part, the compound after the results:

| EC50 | SMILES |
| --- | --- |
| 0.1 to 100 nM | CCC1CN(c2ccc(Nc3ccc4c(c3)OCC(=O)N4)c(C)n2)CCO1 (stereo not drawn) [Compound 498, 7-((6-(2-ethylmorpholino)-2-methylpyridin-3-yl)amino)-2H-benzo[b][1,4]oxazin-3(4H)-one] |
| 0.1 to 100 nM | CC[C@@H]1CN(c2ccc(Nc3ccc4c(c3)OCC(=O)N4)c(C)n2)C[C@H](CC)O1 [Compound 499, 7-((6-((2S,6R)-2,6-diethylmorpholino)-2-methylpyridin-3-yl)amino)-2H-benzo[b][1,4]oxazin-3(4H)-one] |
| 0.1 to 100 nM | Cc1nc(N2CCOC(C)(C)C2)ccc1Nc1ccc2c(c1)OCC(=O)N2 [Compound 500, 7-((6-(2,2-dimethylmorpholino)-2-methylpyridin-3-yl)amino)-2H-benzo[b][1,4]oxazin-3(4H)-one] |
| 0.1 to 100 nM | CCN(CC)c1ccc(Nc2ccc3c(c2)OCC(=O)N3)c(C)c1 [Compound 501, 7-((4-(diethylamino)-2-methylphenyl)amino)-2H-benzo[b][1,4]oxazin-3(4H)-one] |
| 0.1 to 100 nM | COC1(C(F)(F)F)CCN(c2ccc(Nc3ccc4c(c3)OCC(=O)N4)c(C)n2)CC1 [Compound 503, 7-((6-(4-methoxy-4-(trifluoromethyl)piperidin-1-yl)-2-methylpyridin-3-yl)amino)-2H-benzo[b][1,4]oxazin-3(4H)-one] |
| 0.1 to 100 nM | Cc1nc(N2CC(C)(C)OC(C)(C)C2)ccc1Nc1ccc2c(c1)OCC(=O)N2 [Compound 504] |
| 0.1 to 100 nM | COCCOC1CCN(c2ccc(Nc3ccc4c(c3)OCC(=O)N4)c(C)c2)CC1 [Compound 505] |
| 0.1 to 100 nM | Cc1cc(N2CCC(O)(C(F)(F)F)CC2)ccc1Nc1ccc2c(c1)OCC(=O)N2 [Compound 509, 7-((4-(4-hydroxy-4-(trifluoromethyl)piperidin-1-yl)-2-methylphenyl)amino)-2H-benzo[b][1,4]oxazin-3(4H)-one] |
| 0.1 to 100 nM | Cc1cc(N2CCC(F)CC2)ccc1Nc1ccc2c(c1)OCC(=O)N2 [Compound 518, 7-((4-(4-fluoropiperidin-1-yl)-2-methylphenyl)amino)-2H-benzo[b][1,4]oxazin-3(4H)-one] |
| 0.1 to 100 nM | Cc1cc(N2CC(C)N(CC(F)(F)F)C(C)C2)ccc1Nc1ccc2c(c1)OCC(=O)N2 (stereo not drawn) [Compound 519, 7-((4-(3,5-dimethyl-4-(2,2,2-trifluoroethyl)piperazin-1-yl)-2-methylphenyl)amino)-2H-benzo[b][1,4]oxazin-3(4H)-one] |
| 0.1 to 100 nM | Cc1nc(N2CC(C)OC(C)(C)C2)ccc1Nc1ccc2c(c1)OCC(=O)N2 (stereo not drawn) [Compound 520, 7-((2-methyl-6-(2,2,6-trimethylmorpholino)pyridin-3-yl)amino)-2H-benzo[b][1,4]oxazin-3(4H)-one] |
| 0.1 to 100 nM | Cc1nc(N2CCN(CC(F)(F)F)CC2)ccc1Nc1ccc2c(c1)OCC(=O)N2 [Compound 521, 7-((2-methyl-6-(4-(2,2,2-trifluoroethyl)piperazin-1-yl)pyridin-3-yl)amino)-2H-benzo[b][1,4]oxazin-3(4H)-one] |
| 0.1 to 100 nM | CCc1nc(N2C[C@@H](C)O[C@@H](C)C2)ccc1Nc1ccc2c(c1)OCC(=O)N2 [Compound 522, 7-((6-((2S,6R)-2,6-dimethylmorpholino)-2-ethylpyridin-3-yl)amino)-2H-benzo[b][1,4]oxazin-3(4H)-one] |
| 0.1 to 100 nM | Cc1cc(N2CCC(F)(F)CC2)ccc1Nc1ccc2c(c1)OCC(=O)N2 [Compound 525, 7-((4-(4,4-difluoropiperidin-1-yl)-2-methylphenyl)amino)-2H-benzo[b][1,4]oxazin-3(4H)-one] |
